Data on three compounds can be found in patent publication US20250052744A1, “Dyes and Uses Thereof” (The University of Liverpool, priority 2021, published 2025).

“Also recorded” adds a separate entry of the source.

Experiment in all cases: Qualitative dye staining on agarose pads (EVOS M7000)
What all share (format): cell-based
What all share (design): key to Relative fluorescent intensity: Very high: If the cells looked twice as big in the fluorescent channel, it was marked as having “very high” relative fluorescent intensity; High: if the cells looked bigger in the fluorescent channel, it was marked as having “high” relative fluorescent intensity; Medium: If the cells looked almost the same size in the fluorescent channel and the bright field, it was marked as having “medium” relative fluorescent intensity; Low: If the cells looked smaller in the fluorescent channel as compared to the brightfield but still the whole cell was visible, it was marked as having “low” relative fluorescent intensity; Negligible: If only a few traces of a cell was visible in the fluorescent channel, it was marked as having “negligible” relative fluorescent intensity

One assay relates to Cory. Urealyticum. The following applies: DiSC3(5) 3 μM, SYBR Green I 10×, SYTO 13 3 μM, FM4-64 15 μM.
For another assay, the system named is Enterococcus spp. The following applies: Table 6 thresholds, Entercoccus, DiSC3(5) 3 μM, SYBR Green I 10×, SYTO 13 3 μM, FM4-64 15 μM.
A further assay concerns Pseudomonas aeruginosa. The following applies: DiSC3(5) 3 μM, SYBR Green I 10×, SYTO 13 3 μM, FM4-64 15 μM.
[1] abbreviates: Table 8 sample Cory. Urealyticum (1001).
The mark [2] stands for this setting: Table 8 sample Cory. Urealyticum (1002).
The mark [3] stands for this setting: Table 6 thresholds, Pseudomonas aeruginosa.
Where [4] appears, read: Table 7 commercial strain Pseudomonas aeruginosa NCTC 10332.
Setting [5] is: Table 7 commercial strain Pseudomonas aeruginosa NCTC 13715.
The mark [6] stands for this setting: Table 8 sample Pseudomonas aeruginosa (031).
Setting [7] is: Table 8 sample Pseudomonas aeruginosa (032).
Setting [8] is: Table 8 sample Pseudomonas aeruginosa (033).

`CCCN1C(=CC=CC=Cc2sc3ccccc3[n+]2CCC)Sc2ccccc21.[I-]` [DiSC3(5), 3,3′-Dipropylthiadicarbocyanine Iodide]: the “Percentage of cells stained” value in the assay on Cory. Urealyticum (setting [1]) was “Few”; in the assay with Cory. Urealyticum (setting [2]), “Few”; in the assay on Enterococcus spp., “Half”; with Pseudomonas aeruginosa (setting [3]), “Few”; in the assay with Pseudomonas aeruginosa (setting [4]) it was “Few”; with Pseudomonas aeruginosa (setting [5]), “Few”. The “Percentage of cells stained” value in the assay with Pseudomonas aeruginosa (setting [6]), with Pseudomonas aeruginosa (setting [7]) and in the assay on Pseudomonas aeruginosa (setting [8]) was “Few” each time. Moreover, the Relative fluorescent intensity entry in the assay on Cory. Urealyticum (setting [1]) is “Negligible”; in the assay on Cory. Urealyticum (setting [2]) it was “Negligible”; with Enterococcus spp., “low and Low”; with Pseudomonas aeruginosa (setting [3]), “no or negligible staining; also recorded: Negligible”; in the assay with Pseudomonas aeruginosa (setting [4]) it was “Negligible”; in the assay with Pseudomonas aeruginosa (setting [5]), “Negligible”. Also, the Relative fluorescent intensity entry with Pseudomonas aeruginosa (setting [6]), in the assay on Pseudomonas aeruginosa (setting [7]) and in the assay with Pseudomonas aeruginosa (setting [8]) was “Negligible” in each case.
In the case of `CCN(CC)c1ccc(C=CC=CC=Cc2cc[n+](CCC[N+](CC)(CC)CC)cc2)cc1.[Br-].[Br-]` [FM 4-64, N-(3-Triethylammoniumpropyl)-4-(6-(4-(Diethylamino) Phenyl) Hexatrienyl) Pyridinium Dibromide], the “Percentage of cells stained” value with Cory. Urealyticum (setting [1]) is on record as “Few”; with Cory. Urealyticum (setting [2]), “Few”; with Enterococcus spp., “Almost all”; in the assay on Pseudomonas aeruginosa (setting [3]), “Almost all”; in the assay with Pseudomonas aeruginosa (setting [4]), “Almost all”; in the assay with Pseudomonas aeruginosa (setting [5]), “Almost all”. The “Percentage of cells stained” value in the assay with Pseudomonas aeruginosa (setting [6]), in the assay on Pseudomonas aeruginosa (setting [7]) and with Pseudomonas aeruginosa (setting [8]) was “Almost all” in each case. Moreover, the Relative fluorescent intensity entry was “Negligible” in the assay on Cory. Urealyticum (setting [1]); “Negligible” with Cory. Urealyticum (setting [2]); “medium” in the assay with Enterococcus spp.; “Medium” with Enterococcus spp. (listed as FM4-64); “Low” in the assay on Pseudomonas aeruginosa (setting [3]); “Negligible” in the assay with Pseudomonas aeruginosa (setting [4]). Further, the Relative fluorescent intensity result in the assay with Pseudomonas aeruginosa (setting [5]), in the assay on Pseudomonas aeruginosa (setting [6]), in the assay with Pseudomonas aeruginosa (setting [7]) and in the assay with Pseudomonas aeruginosa (setting [8]) was “Low” throughout.
As to `CCCN(CCCN(C)C)c1cc(/C=C2/Sc3ccccc3N2C)c2ccccc2[n+]1-c1ccccc1` [SYBR Green I, N′,N′-dimethyl-N-[4-[(E)-(3-methyl-1,3-benzothiazol-2-ylidene)methyl]-1-phenylquinolin-1-ium-2-yl]-N-propylpropane-1,3-diamine], the “Percentage of cells stained” value is on record as “Few” in the assay on Cory. Urealyticum (setting [1]); “Few” with Cory. Urealyticum (setting [2]); “Almost all” with Enterococcus spp.; “Almost all” with Pseudomonas aeruginosa (setting [3]); “Almost all” in the assay on Pseudomonas aeruginosa (setting [4]); “Almost all” with Pseudomonas aeruginosa (setting [5]). In addition, the “Percentage of cells stained” value in the assay with Pseudomonas aeruginosa (setting [6]), in the assay on Pseudomonas aeruginosa (setting [7]) and in the assay on Pseudomonas aeruginosa (setting [8]) was “Almost all” each time. Moreover, the Relative fluorescent intensity entry is reported as “Negligible” with Cory. Urealyticum (setting [1]); “Negligible” with Cory. Urealyticum (setting [2]); “medium to high” in the assay on Enterococcus spp.; “Medium-High” with Enterococcus spp. (listed as SYBR Green); “Low” in the assay on Pseudomonas aeruginosa (setting [3]); “Low” with Pseudomonas aeruginosa (setting [4]). Also, the Relative fluorescent intensity result in the assay with Pseudomonas aeruginosa (setting [5]), in the assay on Pseudomonas aeruginosa (setting [6]), in the assay with Pseudomonas aeruginosa (setting [7]) and in the assay with Pseudomonas aeruginosa (setting [8]) was “Low” in each case.
